Several values for one entry are separate records, joined by “and”; a condition that tells them apart may be missing. Equal entries are not always repeated.
What was measured:
[1] = tested on: micronucleated cells in blood; assay: Flow cytometric micronucleus assay, dual parameter data, cyclophosphamide, per 10^6 cells; format: in vivo, mouse; settings: for Mns (T = 96 hr): Hoechst 33258; for Δ (T96 - T0): per mouse difference and mean of differences
Excerpt: The fixation procedure can affect the permeability of a cell, cell morphology and the amount of undesirable autofluorescence that is associated with a cell preparation. Fixing procedures can cause changes in cell structure (that are reflected in the light scatter patterns) as well as changes in the distribution of the dye molecules within the cells (resulting in altered fluorescence emission patterns). Practioners of the art are unaware that fixing the cells at ultralow temperatures circumvents these fixation problems and provides cells that are suitable for subsequent staining and FCM analysis. Initially, the cells are centrifuged in order to separate them from serum components which could aggregate when added to cold fixative. To fix cells, a fresh blood sample (25 μl) containing an anticogulant is suspended in a solution containing 1% BSA and 10% dimethylsulfoxide (DMSO) in PBS (2 ml). The cells are centrifuged at 500×g for five minutes at room temperature. The supernatant is discarded and the pellet is resuspended in the small amount of residual supernatant that remains. This cell suspension is cooled to 0° C., the cells are diluted further with cold (-70° C.) absolute methanol (2 ml) and it is incubated at -70° C. for five minutes. The cell suspension is then immediately diluted with 1% BSA in PBS (10 ml) and is centrifuged at 500×g for 5 minutes. The low temperature treatment yields fixed cells with good morphology as viewed with either inverted phase contrast microscopy or fluorescent microscopy. Autofluorescence of these cells is very low, in contrast to glutaraldehyde or paraformaldehyde fixation procedures that are widely used in the art. Other volumes of blood and/or BSA in PBS are also compatible with this cell fixing process. The volume of methanol should be in the range of 0.5 to 20 ml. The temperature of the methanol should be in the range -30° C. to -90° C., and the fixation time in the range of 1 minute to 60 minutes for good results. When cells are fixed in alcohol at higher temperatures (e.g. in the range of +37° C. to - 20° C.), they tend to aggregate and quickly settle to the bottom of the centrifuge tube. […] Other ultra cold solvents can be used in place of methanol, such as acetone, methanol/acetone solutions, etc.. Two fixed cell samples can be prepared for each mouse, an initial (time=0) sample and a final time=96 hr sample. Cells fixed in this way can be stored at 0° C. for weeks with no significant deterioration and are ready for staining and MN analysis.
It is known to practioners in the art that a variety of fluorescent dyes can be used to stain the DNA and RNA of cells. Even so, the specific stain, combinations or staining conditions that are optimum for the FCM based micronucleus assay are unresolved. […] These dye can be used individually or together to stain different cell populations. By choosing proper concentrations of these two dyes in conjunction with 363 nm excitation wavelength, it is possible to obtain a blue fluorescence signal from the Hoechst 33258 labeled micronucleii. A red fluorescence signal can be obtained from propidium iodide labeled PCEs. Whereas neither the dye combination, the dye concentration, the dye excitation wavelengths nor the appropriate buffer systems are known to practitioners in the art for an FCM based micronucleus assay, the following staining protocal is submitted as an embodiment of the present invention. A 10× stock solution of the dye should be prepared by dissolving 14.3 mg Hoechst 33258 in methanol (100 ml). A working solution is then prepared by adding 0.25 ml of the 10× stock solution to 9.75 ml of complete Sorensen's buffer. This working solution is then passed through an 0.2 micron acro-filter disk (Gelman Sciences) to remove any debris. The filtered working solution is further diluted by adding 25 μl to 967.5 μl of saline buffer (9 g NaCl and 0.445 g sodium bicarbonate per liter). […]

[2] = tested on: micronucleated cells in blood; assay: Flow cytometric micronucleus assay, list mode data, blood of MMS treated mice, per 10,000 PCEs; format: in vivo, mouse
Excerpt: The fixation procedure can affect the permeability of a cell, cell morphology and the amount of undesirable autofluorescence that is associated with a cell preparation. Fixing procedures can cause changes in cell structure (that are reflected in the light scatter patterns) as well as changes in the distribution of the dye molecules within the cells (resulting in altered fluorescence emission patterns). Practioners of the art are unaware that fixing the cells at ultralow temperatures circumvents these fixation problems and provides cells that are suitable for subsequent staining and FCM analysis. Initially, the cells are centrifuged in order to separate them from serum components which could aggregate when added to cold fixative. To fix cells, a fresh blood sample (25 μl) containing an anticogulant is suspended in a solution containing 1% BSA and 10% dimethylsulfoxide (DMSO) in PBS (2 ml). The cells are centrifuged at 500×g for five minutes at room temperature. The supernatant is discarded and the pellet is resuspended in the small amount of residual supernatant that remains. This cell suspension is cooled to 0° C., the cells are diluted further with cold (-70° C.) absolute methanol (2 ml) and it is incubated at -70° C. for five minutes. The cell suspension is then immediately diluted with 1% BSA in PBS (10 ml) and is centrifuged at 500×g for 5 minutes. The low temperature treatment yields fixed cells with good morphology as viewed with either inverted phase contrast microscopy or fluorescent microscopy. […] Cells fixed in this way can be stored at 0° C. for weeks with no significant deterioration and are ready for staining and MN analysis.
It is known to practioners in the art that a variety of fluorescent dyes can be used to stain the DNA and RNA of cells. […] By choosing proper concentrations of these two dyes in conjunction with 363 nm excitation wavelength, it is possible to obtain a blue fluorescence signal from the Hoechst 33258 labeled micronucleii. A red fluorescence signal can be obtained from propidium iodide labeled PCEs. […]

[3] = CP 100 μg/g body wt IP at 0 and 48 hours
[4] = CP 100 μg/g body wt IP at 0 and 48 hours, listed as CP

Compound | Mns (T = 96 hr) [1, 3] | Mns (T = 96 hr) [1, 4] | Δ (T96 - T0) [1, 3] | Δ (T96 - T0) [1, 4] | Difference Mn96 - Mn0 (difference of the means) ([1]; CP 100 μg/g body wt IP at 0 and 48 hours, t=96 hr mean minus t=0 mean) | MN formation ([1]; CP 100 μg/g body wt at 0 and 48 hours) | Increase in MNs (MeanCP - MeanSaline), from mean Δ (T96 - T0) ([1]; first method: difference of mean individual Δ values, CP minus saline) | Increase in MNs (MeanCP - MeanSaline), from Mn96 - Mn0 of means ([1]; second method: difference of means, CP minus saline) | Increase in MNs, means of the t=96 hr samples (dosed minus controls) ([1]; third method: t=0 values ignored, 1,000,000 cells) | Experimental (A96) (MN96 hr) ([2]; MMS 100 μg/g body weight IP at 0 and 48 hours, 96 hr blood, list mode) | Δ (A96 - T96), change in number of MNs ([2]; MMS 100 μg/g body weight IP at 0 and 48 hours, normalized with K, list mode) | clastogenic activity ([2]; MMS 100 μg/g body weight IP at t=0 and t=48 hours)
O=P1(N(CCCl)CCCl)NCCCO1 (stereo not drawn) [cyclophosphamide] | 2954 MNs per 10^6 cells | 2591 MNs per 10^6 cells and 2453 MNs per 10^6 cells and 2626 MNs per 10^6 cells and 2708 MNs per 10^6 cells and 2594 ± 106 MNs per 10^6 cells | 1124 MNs per 10^6 cells | 1099 MNs per 10^6 cells and 1039 MNs per 10^6 cells and 1074 MNs per 10^6 cells and 1282 MNs per 10^6 cells and 1124 ± 108 MNs per 10^6 cells | 1123 MNs per 10^6 cells | large increase in MN formation | 1047 MNs per 10^6 cells | 1047 MNs per 10^6 cells | 992 MN-cells |  |  | 
COS(C)(=O)=O [MMS, methyl methanesulfonate] |  |  |  |  |  |  |  |  |  | 432 MNs/10,000 PCEs and 546 MNs/10,000 PCEs and 470 MNs/10,000 PCEs and 523 MNs/10,000 PCEs and 580 MNs/10,000 PCEs | 293 MNs/10,000 PCEs and 342 MNs/10,000 PCEs and 328 MNs/10,000 PCEs and 307 MNs/10,000 PCEs and 374 MNs/10,000 PCEs and 329 ± 32 MNs/10,000 PCEs and 329±28 MNs/10,000 PCEs | MMS exhibited clastogenic activity

Source: patent US5229265A, “Process for analyzing clastogenic agents” (Litron Laboratories, priority 1990, dated 1993)
